Reference: patent US20130202698A1 (NANJING SANHOME PHARMACEUTICAL CO., LTD., priority 2005, published 2013)
Read-outs that look alike come from different tables or passages of the source. Marks after values point to notes of the source that are not given here.

Key:
Beagle dogs = details: dog, in vivo, iv, 200 mg/kg
Protocol: In the studies, male and female Beagle dogs were treated at high doses of ornidazole enantiomers for 2 weeks, and then sacrificed for anatomical and pathological examinations. […] All the doses were administered in the levo- and racemate groups.

[1] = system: thiosemicarbazide-induced convulsion; experiment: Anticonvulsant effects on thiosemicarbazide-induced convulsion in mice; assay type: in vivo; details: n=10; for Convulsion Latency / Time to Death: Mean ± SD
Protocol: (§1) Mice are randomized into 4 treatment groups (n=10 with half male and half female): dextro- or levo-ornidazole (dosage 40, 80, 160 mg/kg), vehicle control group (15% propylene glycol in 0.9% sodium chloride, 20 mL/kg) and the positive control group. Animals are treated with known convulsion-inducing agents, followed by the drug or vehicle control given intravenously. The dose volume is 20 mL/kg with an infusion rate of 0.2 mL/10 seconds. The anticonvulsant effects are observed and recorded (see Tables 2-6).

[2] = system: isoniazid-induced convulsion; experiment: Anticonvulsant effects on isoniazid-induced convulsion in mice; assay type: in vivo; details: Mean ± SD, n=10
Protocol: as §1

glutamate = experiment: Effects on excitatory neurotransmitter glutamate levels in mice brain; assay type: in vivo
Description: In another experiment, the effects on excitatory neurotransmitter levels by levo- and dextro-ornidazole were compared.

amoeba dysentery = experiment: Pharmacodynamic study of cecum amoeba infection in mice; assay type: in vivo; details: male ICR mice infected in the cecum, drug i.v. at 24, 48, 72 hours
Protocol: Male ICR mice were injected with liquid containing about 200,000 units of amoeba dysentery in the cecum. The mice were randomly divided into 19 groups, each with 10. The mice in solvent control group were given blank solutions by tail vein injection. The treatment groups were injected intravenously at 24, 48, 72 hours after infection with active drugs. The animals were killed six days after infection. Intestinal mucosal biopsies were done, and comparative studies of different stages of the amoeba were studied under microscope. […] Calculated the dosage of 50% (ED50) and 90% (ED90) inhibition rate.

[3] = Acute toxicity in mice (LD50); details: mouse, in vivo
trichomonas vaginalis = experiment: Pharmacodynamic study of trichomonas vaginalis infection in mice; assay type: in vivo; set-up: ED90: unit not given beside the values; details: male ICR mice infected intraperitoneally, drug i.v. at 2, 24, 48, 72 hours
Protocol: Male ICR mice were injected intraperitoneally with liquid containing 0.4 ml 3×10^6 trichomonas vaginalis (trichomonas vaginalis from clinical patients). The mice were randomly divided into 19 groups, each with 10. The mice in solvent control group were given blank solutions by tail vein injection. The treatment groups were injected intravenously at 2, 24, 48, and 72 hours after infection with active drugs. The animals were killed five days after infection. Washing offal, fluid was centrifuged, and microscopically examined for life larvae. Autopsy was performed to determine whether there was any visceral and abdominal abscess, microscopic examination was conducted to determine the number of live trichomoniasis in the abscess. […] The abscess formation was inhibited in the treatment groups[…] and the number of live trichomoniasis was reduced. Calculate the dosage of 50% (ED50) and 90% (ED90) inhibition rate.

righting reflex = experiment: Hypnotic effect, loss of righting reflex; assay type: in vivo, mice; details: mouse, in vivo
Protocol: Thirty minutes after drug administration, the number of animals losing righting reflex (LORR) was recorded. […] Sodium pentobarbital was used at […] as the positive control.

[4] = Phase II clinical trial, intravenous, adverse events; assay type: in vivo, human; details: human, in vivo, iv
Protocol: A double-blinded randomized controlled trial was carried out to compare the adverse events between the I.V. levo-ornidazole and racemate treatment groups. […] The high rate of adverse events observed from the treatment by the racemic drug caused patient treatment non-compliant, which could be dangerous for life-threatening infections.

[5] = system: motor balance and coordination; details: both, mouse, in vivo
Protocol: Motor balance and coordination were tested using a modified beam walking method. Mice were put on a smooth beam tilted at an angle of 70 degree. Mice passed the test by standing on the beam for 0.5 minute without falling off. All the mice were pre-screened before the studies, and a total of 110 mice were selected by passing the beam test in 3 consecutive tries. The selected mice were divided into 11 groups with 10 mice in each group (half male and half female). At certain time points after drug administration, mice were tested on the beam for 3 consecutive times. A mouse was counted as failing to the test if it fell off the beam for 2 or more times.
The dose volume was 0.2 mL/10 gram and infusion rate was 0.2 mL/10 seconds. Chlorpromazine was used as the positive control.

Structure (SMILES): Cc1ncc([N+](=O)[O-])n1C[C@H](O)CCl [L-ornidazole, S-(−)-ornidazole]
- Toxicity Severity (Beagle dogs): Mild
- Convulsion Latency ([1]; 40 mg/kg i.v.): 77.1 ± 16.8 min
- Time to Death ([1]; 40 mg/kg i.v.): 122.6 ± 29.8 min
- Convulsion Latency ([1]; 80 mg/kg i.v.): 85.0 ± 30.9 min
- Time to Death ([1]; 80 mg/kg i.v.): 116.7 ± 38.7 min
- Mortality Rate ([1]; 160 mg/kg i.v.): 9/10^##
- Rate of Convulsion ([1]; 160 mg/kg i.v.): 9/10^##
- Convulsion Latency ([2]; 40 mg/kg i.v.): 37.1 ± 5.8 min
- Time to Death ([2]; 40 mg/kg i.v.): 47.6 ± 5.6 min
- Convulsion Latency ([2]; 80 mg/kg i.v.): 38.3 ± 6.3 min
- Time to Death ([2]; 80 mg/kg i.v.): 48.3 ± 9.6 min
- Convulsion Latency ([2]; 160 mg/kg i.v.): 45.0 ± 7.8 min
- Time to Death ([2]; 160 mg/kg i.v.): 75.2 ± 19.0 min
- Effect on glutamate levels in cerebrum and cerebellum (glutamate; FIG. 4, listed as Levo-ornidazole): little effect
- Effect on glutamate levels in cerebrum and cerebellum (glutamate; FIG. 4, listed as levo-ornidazole): little effects
- ED50 (amoeba dysentery; Mus musculus, iv, dosage of 50% inhibition rate): 10.5 mg/kg
- ED90 (amoeba dysentery; dosage of 90% inhibition rate): 41.2
- Plasma protein binding, levo- vs dextro-ornidazole (plasma protein): Similar
- LD50 ([3]; intravenous injection): 332 mg/kg
- LD50 ([3]; ip, intraperitoneal injection): 1380 mg/kg
- LD50 ([3]; oral gavage): 1070 mg/kg
- ED50 (trichomonas vaginalis; Trichomonas vaginalis, dosage of 50% inhibition rate, read-out: ED50): 9.1 mg/kg
- ED90 (trichomonas vaginalis; dosage of 90% inhibition rate): 32.6
- Number of animals Loss of Righting Flex 30 min Post-dose (righting reflex; both, 40 mg/kg, 30 min): 0
- Number of animals Loss of Righting Flex 30 min Post-dose (righting reflex; both, 80 mg/kg, 30 min): 0
- Number of animals Loss of Righting Flex 30 min Post-dose (righting reflex; both, 160 mg/kg, 30 min): 0
- Number of animals Loss of Righting Flex 30 min Post-dose (righting reflex; 160 mg/kg): none
- Adverse events reported (total) [4]: 3
- Appetite drop, # of Patients with AE [4]: 1
- Appetite drop, Incidence (%) [4]: 0.74%
- Dizziness, # of Patients with AE [4]: 0
- Dizziness, Incidence (%) [4]: 0.00%
- Dry mouth, # of Patients with AE [4]: 0
- Dry mouth, Incidence (%) [4]: 0.00%
- Headache, # of Patients with AE [4]: 0
- Headache, Incidence (%) [4]: 0.00%
- Hypersomnia, # of Patients with AE [4]: 0
- Hypersomnia, Incidence (%) [4]: 0.00%
- Hypodynamia, # of Patients with AE [4]: 0
- Hypodynamia, Incidence (%) [4]: 0.00%
- Nausea, # of Patients with AE [4]: 0
- Nausea, Incidence (%) [4]: 0.00%
- Patients with adverse events (total) [4]: 2 patients
- Stomach discomfort, # of Patients with AE [4]: 0
- Stomach discomfort, Incidence (%) [4]: 0.00%
- Total incidence rate of adverse events [4]: 1.47%
- Vertigo, # of Patients with AE [4]: 0
- Vertigo, Incidence (%) [4]: 0.00%
- Vomiting, # of Patients with AE [4]: 0
- Vomiting, Incidence (%) [4]: 0.00%
- WBC decline, # of Patients with AE [4]: 2
- WBC decline, Incidence (%) [4]: 1.47%
- Number of Animals Fall Off ([5]; 40 mg/kg, 0.5 h): 0
- Number of Animals Fall Off ([5]; 40 mg/kg, 1 h): 1
- Number of Animals Fall Off ([5]; 40 mg/kg, 2 h): 0
- Number of Animals Fall Off ([5]; 40 mg/kg, 3 h): 0
- Number of Animals Fall Off ([5]; 40 mg/kg, 4 h): 0
- Number of Animals Fall Off ([5]; 80 mg/kg, 0.5 h): 0
- Number of Animals Fall Off ([5]; 80 mg/kg, 1 h): 0
- Number of Animals Fall Off ([5]; 80 mg/kg, 2 h): 0
- Number of Animals Fall Off ([5]; 80 mg/kg, 3 h): 1
- Number of Animals Fall Off ([5]; 80 mg/kg, 4 h): 1
- Number of Animals Fall Off ([5]; 160 mg/kg, 0.5 h): 0
- Number of Animals Fall Off ([5]; 160 mg/kg, 1 h): 0
- Number of Animals Fall Off ([5]; 160 mg/kg, 2 h): 3
- Number of Animals Fall Off ([5]; 160 mg/kg, 3 h): 2
- Number of Animals Fall Off ([5]; 160 mg/kg, 4 h): 1
